{
  "source": "patent US20090047243A1",
  "about": "“COMBINATIONS FOR THE TREATMENT OF B-CELL PROLIFERATIVE DISORDERS” (priority 2007, published 2009)",
  "key": {"[1]": {"system": "human multiple myeloma cells (MM.1S)", "test": "Anti-proliferation assay (ATPLite, 72 h)", "type": "cell-based", "set-up": "key to synergy score / synergy (score), PDEi × HE-NECA: S = lnfX·lnfY·ΣIdata(Idata−ILoewe), volume over Loewe additivity", "details": "for inhibition at 1.17 µM: ADAC 1.17 μM; for inhibition at 3.51 µM: ADAC 3.51 μM; for inhibition at 10.5 µM: ADAC 10.5 μM; for inhibition at 31.6 µM: ADAC 31.6 μM; for percent inhibition of ATP in MM.1S cells: 72 h", "procedure,_shortened": "(§1)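 Cell viability was read by ATPLite luminescence after compound exposure. ANBL6 medium carried 10 ng/ml IL-6. Compounds were serially diluted 2- or 3-fold over 12 concentrations for single-agent curves, and percent inhibition was calculated relative to the mean of untreated wells.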"}, "[2]": {"system": "RPMI-8226, H929, MM.1S and MM.1R MM cell lines", "test": "Anti-proliferation assay, statements across MM cell lines", "type": "cell-based, human", "details": "for activity and synergy of adenosine receptor agonists: RPMI-8226, H929, MM.1S and MM.1R MM cell lines", "protocol": "The MM.1S, MM.1R, H929, MOLP-8, EJM, INA-6, ANBL6, KSM-12-PE, OPM2, and RPMI-8226 multiple myeloma cell lines, as well as the Burkitt's lymphoma cell line GA-10 and the non-Hodgkin's lymphoma cell lines Farage, SU-DHL6, and Karpas 422 were cultured at 37° C. and 5% CO2 in RPMI-1640 media supplemented with 10% FBS. ANBL6 and INA-6 culture media was also supplemented with 10 ng/ml IL-6. The OCI-ly10 cell line was cultured using RPMI-1640 media supplemented with 20% human serum. MM.1S, MM.1R, OCI-ly10, Karpas 422, and SU-DHL6 cells were provided by the Dana Farber Cancer Institute. H929, RPMI-8226, GA-10, and Farage cells were from ATCC (Cat #'s CCL-155, CRL-9068, CRL-2392 and CRL-2630 respectively). MOLP-8, EJM, KSM-12-PE, and OPM2 were from DSMZ. The ANBL6 and INA-6 cell lines were provided by the M. D. Anderson Cancer Research Center.\nCompounds were prepared in DMSO at 1000× the highest desired concentration. Master plates were generated consisting of serially diluted compounds in 2- or 3-fold dilutions in 384-well format. For single agent dose response curves, the master plates consisted of 9 individual compounds at 12 concentrations in 2- or 3-fold dilutions. For combination matrices, master plates consisted of individual compounds at 6 or 9 concentrations at 2- or 3-fold dilutions.\nCells were added to 384-well plates 24 hours prior to compound addition such that each well contained 2000 cells in 35 μL of media. Master plates were diluted 100× (1 μL into 100 μL) into 384-well dilution plates containing only cell culture media. 4.5 μL from each dilution plate was added to each assay plate for a final dilution of 1000×. To obtain combination data, two master plates were diluted into the assay plates. Following compound addition, assay plates were kept at 37° C. and 5% CO2 for 72 hours. Thirty microliters of ATPLite (Perkin Elmer) at room temperature was then added to each well. Final amount of ATP was quantified within 30 minutes using ATPLite luminescent read-out on an Envision 2103 Multilabel Reader (Perkin Elmer). Measurements were taken at the top of the well using a luminescence aperture and a read time of 0.1 seconds per well.\nThe Loewe additivity model was used to quantify combination effects. Combinations were ranked initially by Additivity Excess Volume, which is defined as ADD Volume=ΣCX, CY (Idata−ILoewe). where ILoewe(CX, CY) is the inhibition that satisfies (CX/ECX)+(CY/ECY)=1, and ECX,Y are the effective concentrations at ILoewe for the single agent curves. A “Synergy Score” was also used, where the Synergy Score S=log fX log fY ΣIdata(Idata−ILoewe), summed over all non-single-agent concentration pairs, and where log fX,Y is the natural logarithm of the dilution factors used for each single agent. This effectively calculates a volume between the measured and Loewe additive response surfaces, weighted towards high inhibition and corrected for varying dilution factors. An uncertainty σS was calculated for each synergy score, based on the measured errors for the Idata values and standard error propagation."}, "[3]": {"system": "H929 multiple myeloma cell line", "test": "Anti-proliferation assay (ATPLite, 72 h)", "type": "cell-based, human", "set-up": "key: S = lnfX·lnfY·ΣIdata(Idata−ILoewe), volume over Loewe additivity", "procedure,_shortened": "as §1"}, "[4]": {"system": "RPMI-8226 multiple myeloma cell line", "test": "Anti-proliferation assay (ATPLite, 72 h)", "type": "cell-based, human", "set-up": "key: S = lnfX·lnfY·ΣIdata(Idata−ILoewe), volume over Loewe additivity", "procedure,_shortened": "as §1"}, "[5]": {"details": "Homo sapiens, MM1.S, 10 ng/mL IL-6, Trequinsin conc. (μM), read-out: percent inhibition of ATP in MM.1S cells"}, "[6]": {"details": "Homo sapiens, MM1.S, no IL-6, Trequinsin conc. (μM), read-out: percent inhibition of ATP in MM.1S cells"}},
  "note": "Read-outs that look alike come from different tables or passages of the source.",
  "data": [
    {"smiles": "NCCNC(=O)Cc1ccc(NC(=O)Cc2ccc(Nc3ncnc4c3ncn4[C@@H]3O[C@H](CO)[C@@H](O)[C@H]3O)cc2)cc1", "note": "[ADAC, N-(4-(2-((4-(2-((2-aminoethyl)amino)-2-oxoethyl)phenyl)amino)-2-oxoethyl)phenyl)-Adenosine]", "values": [
      {"measurement": "inhibition at 1.17 µM", "setting": "[1]; [5]", "result": 79, "unit": "%"},
      {"measurement": "inhibition at 3.51 µM", "setting": "[1]; [5]", "result": 81, "unit": "%"},
      {"measurement": "inhibition at 10.5 µM", "setting": "[1]; [5]", "result": 85, "unit": "%"},
      {"measurement": "inhibition at 31.6 µM", "setting": "[1]; [5]", "result": 83, "unit": "%"},
      {"measurement": "inhibition at […]", "setting": "[1]; Homo sapiens, MM1.S, 10 ng/mL IL-6, ADAC […], Trequinsin conc. (μM), read-out: percent inhibition of ATP in MM.1S cells", "result": 61, "unit": "%"},
      {"measurement": "inhibition at 1.975 µM", "setting": "[1]; Homo sapiens, MM1.S, ADAC 1.975 μM, Trequinsin Hydrochloride conc. (μM), read-out: Percent inhibition of ATP in MM.1S cells", "result": 37, "unit": "%"},
      {"measurement": "inhibition at 3.95 µM", "setting": "[1]; Homo sapiens, MM1.S, ADAC 3.95 μM, Trequinsin Hydrochloride conc. (μM), read-out: Percent inhibition of ATP in MM.1S cells", "result": 49, "unit": "%"},
      {"measurement": "inhibition at 15.8 µM", "setting": "[1]; Homo sapiens, MM1.S, ADAC 15.8 μM, Trequinsin Hydrochloride conc. (μM), read-out: Percent inhibition of ATP in MM.1S cells", "result": 66, "unit": "%"},
      {"measurement": "inhibition at 31.6 µM", "setting": "[1]; Homo sapiens, MM1.S, Trequinsin Hydrochloride conc. (μM), read-out: Percent inhibition of ATP in MM.1S cells", "result": 60, "unit": "%"},
      {"measurement": "inhibition at 1.17 µM", "setting": "[1]; [6]", "result": 49, "unit": "%"},
      {"measurement": "inhibition at 3.51 µM", "setting": "[1]; [6]", "result": 57, "unit": "%"},
      {"measurement": "inhibition at 10.5 µM", "setting": "[1]; [6]", "result": 66, "unit": "%"},
      {"measurement": "inhibition at 31.6 µM", "setting": "[1]; [6]", "result": 60, "unit": "%"},
      {"measurement": "activity and synergy of adenosine receptor agonists", "setting": "[2]", "result": "active and synergistic"}
    ]},
    {"smiles": "CCCCC#Cc1nc(N)c2ncn([C@@H]3O[C@H](C(=O)NCC)[C@@H](O)[C@H]3O)c2n1", "note": "[HE-NECA, hexynyladenosine-5′-N-ethylcarboxamide]", "values": [
      {"measurement": "percent inhibition of ATP in MM.1S cells", "setting": "[1]; HE-NECA 0.0251 μM alone (trequinsin 0)", "result": 78, "unit": "%"},
      {"measurement": "percent inhibition of ATP in MM.1S cells", "setting": "[1]; HE-NECA 0.0752 μM alone (trequinsin 0)", "result": 79, "unit": "%"},
      {"measurement": "percent inhibition of ATP in MM.1S cells", "setting": "[1]; HE-NECA 0.226 μM alone (trequinsin 0)", "result": 83, "unit": "%"},
      {"measurement": "percent inhibition of ATP in MM.1S cells", "setting": "[1]; HE-NECA 0.677 μM alone (trequinsin 0)", "result": 80, "unit": "%"},
      {"measurement": "percent inhibition of ATP in MM.1S cells", "setting": "[1]; HE-NECA 2.03 μM alone (trequinsin 0)", "result": 86, "unit": "%"},
      {"measurement": "activity and synergy of adenosine receptor agonists", "setting": "[2]", "result": "active and synergistic"}
    ]},
    {"smiles": "COc1cc(-c2ccc(=O)[nH]n2)ccc1OC(F)F", "note": "[Zardaverine, 6-(4-(difluoromethoxy)-3-methoxyphenyl)-3(2H)-Pyridazinone]", "values": [
      {"measurement": "synergy (score), PDEi × HE-NECA", "setting": "[1]; 6×6 cross of PDE inhibitor or PDE inhibitor mixture with HE-NECA, MM.1S", "result": 4.39},
      {"measurement": "inhibition at 1.89 µM", "setting": "[1]; Homo sapiens, MM1.S, Zardaverine 1.89 μM, Cl-IB-MECA conc. (μM), read-out: Percent inhibition of ATP in MM.1S cells", "result": 0.11, "unit": "%"},
      {"measurement": "inhibition at 3.79 µM", "setting": "[1]; Homo sapiens, MM1.S, Zardaverine 3.79 μM, Cl-IB-MECA conc. (μM), read-out: Percent inhibition of ATP in MM.1S cells", "result": -1.8, "unit": "%"},
      {"measurement": "inhibition at 7.58 µM", "setting": "[1]; Homo sapiens, MM1.S, Zardaverine 7.58 μM, Cl-IB-MECA conc. (μM), read-out: Percent inhibition of ATP in MM.1S cells", "result": 13, "unit": "%"},
      {"measurement": "inhibition at 15.2 µM", "setting": "[1]; Homo sapiens, MM1.S, Zardaverine 15.2 μM, Cl-IB-MECA conc. (μM), read-out: Percent inhibition of ATP in MM.1S cells", "result": 5.1, "unit": "%"},
      {"measurement": "inhibition at 30.3 µM", "setting": "[1]; Homo sapiens, MM1.S, Zardaverine 30.3 μM, Cl-IB-MECA conc. (μM), read-out: Percent inhibition of ATP in MM.1S cells", "result": 14, "unit": "%"},
      {"measurement": "synergy score", "setting": "[1]; PDE inhibitor crossed with (S) ENBA, MM.1S", "result": 2.59},
      {"measurement": "synergy score", "setting": "[1]; PDE inhibitor crossed with Chloro-IB-MECA, MM.1S", "result": 3.71},
      {"measurement": "synergy score", "setting": "[1]; PDE inhibitor crossed with HE-NECA, MM.1S", "result": 4.39},
      {"measurement": "synergy score", "setting": "[1]; in combination with adenosine receptor agonist CGS-21680, MM.1S", "result": 3.64},
      {"measurement": "synergy score", "setting": "[1]; in combination with adenosine receptor agonist HE-NECA, MM.1S", "result": 4.39},
      {"measurement": "synergy score", "setting": "[1]; in combination with adenosine receptor agonist regadenoson, MM.1S", "result": 1.45},
      {"measurement": "synergy (score), PDEi × HE-NECA", "setting": "[3]; 6×6 cross of PDE inhibitor or PDE inhibitor mixture with HE-NECA, H929", "result": 3.39},
      {"measurement": "synergy score", "setting": "[3]; PDE inhibitor crossed with (S) ENBA, H929", "result": 4.02},
      {"measurement": "synergy score", "setting": "[3]; PDE inhibitor crossed with Chloro-IB-MECA, H929", "result": 2.97},
      {"measurement": "synergy score", "setting": "[3]; PDE inhibitor crossed with HE-NECA, H929", "result": 3.39},
      {"measurement": "synergy score", "setting": "[3]; in combination with adenosine receptor agonist CGS-21680, H929", "result": 3.75},
      {"measurement": "synergy score", "setting": "[3]; in combination with adenosine receptor agonist HE-NECA, H929", "result": 3.39},
      {"measurement": "synergy score", "setting": "[3]; in combination with adenosine receptor agonist regadenoson, H929", "result": 1.02},
      {"measurement": "synergy score", "setting": "[4]; in combination with adenosine receptor agonist CGS-21680, RPMI 8226", "result": 0.13},
      {"measurement": "synergy score", "setting": "[4]; in combination with adenosine receptor agonist HE-NECA, RPMI-8226", "result": 0.43},
      {"measurement": "synergy score", "setting": "[4]; in combination with adenosine receptor agonist regadenoson, RPMI 8226", "result": 0.52},
      {"measurement": "rank of synergy scores among PDE inhibitors", "setting": "[2]; crossed with adenosine receptor agonists", "result": "highest synergy scores"}
    ]}
  ]
}
